Assay results taken from ChEMBL document CHEMBL4507279, “Data for DCP probe BI-9627” (2021).

Tests used:
[1] = target: Death-associated protein kinase 3 (Homo sapiens) (UniProt O43293); settings: Compound concentration 1000.0 nM
[2] = target: Serine/threonine-protein kinase PAK 2 (Homo sapiens) (UniProt Q13177); settings: Compound concentration 1000.0 nM
[3] = target: Dual specificity mitogen-activated protein kinase kinase 2 (Homo sapiens) (UniProt P36507); settings: Compound concentration 1000.0 nM
Chain of Dual specificity mitogen-activated protein kinase kinase 2 (Homo sapiens) (P36507 whole entry): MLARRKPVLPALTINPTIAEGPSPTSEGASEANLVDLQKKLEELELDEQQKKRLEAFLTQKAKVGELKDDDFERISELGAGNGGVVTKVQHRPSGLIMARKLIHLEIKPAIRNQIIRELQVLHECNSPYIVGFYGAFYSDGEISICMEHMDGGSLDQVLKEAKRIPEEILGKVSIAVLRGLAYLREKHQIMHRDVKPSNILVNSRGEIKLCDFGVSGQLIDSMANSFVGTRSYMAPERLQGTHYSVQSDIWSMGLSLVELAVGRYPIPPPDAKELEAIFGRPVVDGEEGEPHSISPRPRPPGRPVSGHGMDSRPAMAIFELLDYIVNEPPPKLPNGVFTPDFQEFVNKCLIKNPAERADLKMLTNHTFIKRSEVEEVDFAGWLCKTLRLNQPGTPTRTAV

[4] = target: Proto-oncogene tyrosine-protein kinase Src (Homo sapiens) (UniProt P12931); settings: Compound concentration 1000.0 nM
[5] = target: Interleukin-1 receptor-associated kinase 3 (Homo sapiens) (UniProt Q9Y616); settings: Compound concentration 1000.0 nM
[6] = target: Phosphatidylinositol 4,5-bisphosphate 3-kinase catalytic subunit delta isoform (Homo sapiens) (UniProt O00329); settings: Compound concentration 1000.0 nM
[7] = target: MAP/microtubule affinity-regulating kinase 4 (Homo sapiens) (UniProt Q96L34); settings: Compound concentration 1000.0 nM
[8] = tested on: Tyrosine-protein kinase ABL1 (Homo sapiens), P00519 [T315I]; settings: Compound concentration 1000.0 nM
[9] = target: Casein kinase I isoform delta (Homo sapiens) (UniProt P48730); settings: Compound concentration 1000.0 nM
[10] = target: T1, Muscarinic acetylcholine receptor M1 (Homo sapiens) (UniProt P11229); settings: Compound concentration 10.0 uM
T1 sequence (whole entry): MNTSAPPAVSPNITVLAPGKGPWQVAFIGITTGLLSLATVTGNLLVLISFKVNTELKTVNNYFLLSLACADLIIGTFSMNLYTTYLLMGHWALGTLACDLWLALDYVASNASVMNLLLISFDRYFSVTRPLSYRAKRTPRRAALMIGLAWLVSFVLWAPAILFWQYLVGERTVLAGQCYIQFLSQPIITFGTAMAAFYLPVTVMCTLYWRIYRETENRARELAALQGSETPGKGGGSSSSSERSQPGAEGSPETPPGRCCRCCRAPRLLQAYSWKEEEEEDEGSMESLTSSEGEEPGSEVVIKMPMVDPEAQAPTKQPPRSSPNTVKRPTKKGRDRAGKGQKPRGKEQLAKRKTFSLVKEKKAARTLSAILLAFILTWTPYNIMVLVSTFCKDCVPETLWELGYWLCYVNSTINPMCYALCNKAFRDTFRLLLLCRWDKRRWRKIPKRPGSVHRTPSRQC

[11] = target: Ribosomal protein S6 kinase alpha-2 (Homo sapiens) (UniProt Q15349); settings: Compound concentration 1000.0 nM
[12] = target: Beta-3 adrenergic receptor (Homo sapiens) (UniProt P13945); settings: Compound concentration 10.0 uM
[13] = tested on: Epidermal growth factor receptor (Homo sapiens), P00533 [G719S]; settings: Compound concentration 1000.0 nM
[14] = target: cAMP-dependent protein kinase catalytic subunit alpha (Homo sapiens) (UniProt P17612); settings: Compound concentration 1000.0 nM
[15] = target: Activin receptor type-2A (Homo sapiens) (UniProt P27037); settings: Compound concentration 1000.0 nM
[16] = target: Cyclin-dependent kinase 14 (Homo sapiens) (UniProt O94921); settings: Compound concentration 1000.0 nM
[17] = target: Serine/threonine-protein kinase ULK2 (Homo sapiens) (UniProt Q8IYT8); settings: Compound concentration 1000.0 nM
[18] = target: Ribosomal protein S6 kinase beta-1 (Homo sapiens) (UniProt P23443); settings: Compound concentration 1000.0 nM
[19] = target: Muscarinic acetylcholine receptor M5 (Homo sapiens) (UniProt P08912); settings: Compound concentration 10.0 uM
[20] = target: Misshapen-like kinase 1 (Homo sapiens) (UniProt Q8N4C8); settings: Compound concentration 1000.0 nM
[21] = target: Sodium-dependent noradrenaline transporter (Homo sapiens) (UniProt P23975); settings: Compound concentration 10.0 uM
Chain of Sodium-dependent noradrenaline transporter (Homo sapiens) (P23975 whole entry, canonical isoform): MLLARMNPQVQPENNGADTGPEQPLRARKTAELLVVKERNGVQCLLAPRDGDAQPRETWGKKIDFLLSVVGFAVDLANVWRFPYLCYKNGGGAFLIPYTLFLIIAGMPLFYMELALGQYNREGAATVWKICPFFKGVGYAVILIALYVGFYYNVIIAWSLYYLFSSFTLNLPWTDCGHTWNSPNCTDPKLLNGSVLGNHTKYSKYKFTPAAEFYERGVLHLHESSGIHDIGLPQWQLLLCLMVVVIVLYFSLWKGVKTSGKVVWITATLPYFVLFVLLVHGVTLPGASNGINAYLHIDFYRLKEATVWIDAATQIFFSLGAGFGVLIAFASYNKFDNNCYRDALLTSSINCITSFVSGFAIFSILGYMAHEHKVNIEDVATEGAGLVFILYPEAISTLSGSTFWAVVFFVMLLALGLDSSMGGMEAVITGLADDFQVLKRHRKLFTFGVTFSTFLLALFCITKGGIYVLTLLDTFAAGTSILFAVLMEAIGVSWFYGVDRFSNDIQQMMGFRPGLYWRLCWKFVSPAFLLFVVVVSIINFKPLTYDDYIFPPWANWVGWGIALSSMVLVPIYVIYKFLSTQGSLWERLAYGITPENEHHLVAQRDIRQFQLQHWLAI

[22] = tested on: Phosphatidylinositol 4,5-bisphosphate 3-kinase catalytic subunit alpha isoform (Homo sapiens), P42336 [H1047L]; settings: Compound concentration 1000.0 nM
[23] = target: Myosin light chain kinase, smooth muscle (Homo sapiens) (UniProt Q15746); settings: Compound concentration 1000.0 nM
[24] = target: NUAK family SNF1-like kinase 2 (Homo sapiens) (UniProt Q9H093); settings: Compound concentration 1000.0 nM
[25] = target: Casein kinase I isoform alpha-like (Homo sapiens) (UniProt Q8N752); settings: Compound concentration 1000.0 nM
[26] = target: Serine/threonine-protein kinase VRK2 (Homo sapiens) (UniProt Q86Y07); settings: Compound concentration 1000.0 nM
Chain of Serine/threonine-protein kinase VRK2 (Homo sapiens) (Q86Y07 whole entry): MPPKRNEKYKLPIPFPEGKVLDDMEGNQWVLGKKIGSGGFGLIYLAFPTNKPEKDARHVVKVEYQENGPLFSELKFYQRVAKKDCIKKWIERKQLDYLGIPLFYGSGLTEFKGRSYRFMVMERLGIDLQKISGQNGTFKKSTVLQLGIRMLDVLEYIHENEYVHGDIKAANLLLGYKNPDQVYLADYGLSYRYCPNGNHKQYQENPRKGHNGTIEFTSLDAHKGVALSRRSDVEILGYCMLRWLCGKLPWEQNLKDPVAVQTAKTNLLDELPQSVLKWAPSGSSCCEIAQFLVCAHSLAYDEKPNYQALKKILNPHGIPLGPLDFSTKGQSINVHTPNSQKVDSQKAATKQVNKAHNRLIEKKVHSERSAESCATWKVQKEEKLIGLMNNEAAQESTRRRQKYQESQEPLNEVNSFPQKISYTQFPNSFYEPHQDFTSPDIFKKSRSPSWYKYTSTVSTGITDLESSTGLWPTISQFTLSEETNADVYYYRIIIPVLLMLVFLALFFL

[27] = target: Casein kinase II subunit alpha (Homo sapiens) (UniProt P68400); settings: Compound concentration 1000.0 nM
[28] = tested on: Tyrosine-protein kinase ABL1 (Homo sapiens), P00519 [H396P]; settings: Compound concentration 1000.0 nM
[29] = target: Serine/threonine-protein kinase 32A (Homo sapiens) (UniProt Q8WU08); settings: Compound concentration 1000.0 nM
[30] = target: Dual specificity mitogen-activated protein kinase kinase 4 (Homo sapiens) (UniProt P45985); settings: Compound concentration 1000.0 nM
Chain of Dual specificity mitogen-activated protein kinase kinase 4 (Homo sapiens) (P45985 whole entry): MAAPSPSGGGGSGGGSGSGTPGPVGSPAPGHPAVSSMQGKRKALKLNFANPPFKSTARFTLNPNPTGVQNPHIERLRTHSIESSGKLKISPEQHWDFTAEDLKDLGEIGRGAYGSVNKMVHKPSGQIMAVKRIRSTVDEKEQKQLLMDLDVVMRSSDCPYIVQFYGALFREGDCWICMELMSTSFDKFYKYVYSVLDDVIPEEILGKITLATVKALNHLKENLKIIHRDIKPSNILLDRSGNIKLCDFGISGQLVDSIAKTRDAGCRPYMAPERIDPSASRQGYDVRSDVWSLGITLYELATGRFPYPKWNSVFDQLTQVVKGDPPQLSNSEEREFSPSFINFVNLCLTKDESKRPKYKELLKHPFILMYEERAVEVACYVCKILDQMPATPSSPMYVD

[31] = target: Serine/threonine-protein kinase RIO3 (Homo sapiens) (UniProt O14730); settings: Compound concentration 1000.0 nM
Chain of Serine/threonine-protein kinase RIO3 (Homo sapiens) (O14730 whole entry): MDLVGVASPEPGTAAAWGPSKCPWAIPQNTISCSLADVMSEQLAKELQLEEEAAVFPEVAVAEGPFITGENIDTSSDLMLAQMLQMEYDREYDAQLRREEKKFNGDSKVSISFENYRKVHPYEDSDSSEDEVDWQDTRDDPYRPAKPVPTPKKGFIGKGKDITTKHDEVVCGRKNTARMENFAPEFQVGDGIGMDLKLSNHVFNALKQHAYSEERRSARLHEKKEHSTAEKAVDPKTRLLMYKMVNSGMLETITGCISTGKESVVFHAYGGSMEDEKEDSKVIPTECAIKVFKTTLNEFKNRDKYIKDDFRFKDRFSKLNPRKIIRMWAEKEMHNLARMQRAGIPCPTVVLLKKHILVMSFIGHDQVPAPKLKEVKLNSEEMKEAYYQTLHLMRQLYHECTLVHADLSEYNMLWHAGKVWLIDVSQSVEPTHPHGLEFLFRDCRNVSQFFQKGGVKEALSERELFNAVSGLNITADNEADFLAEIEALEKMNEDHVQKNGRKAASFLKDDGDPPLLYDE

[32] = target: Serine/threonine-protein kinase PAK 1 (Homo sapiens) (UniProt Q13153); settings: Compound concentration 1000.0 nM
Chain of Serine/threonine-protein kinase PAK 1 (Homo sapiens) (Q13153 whole entry): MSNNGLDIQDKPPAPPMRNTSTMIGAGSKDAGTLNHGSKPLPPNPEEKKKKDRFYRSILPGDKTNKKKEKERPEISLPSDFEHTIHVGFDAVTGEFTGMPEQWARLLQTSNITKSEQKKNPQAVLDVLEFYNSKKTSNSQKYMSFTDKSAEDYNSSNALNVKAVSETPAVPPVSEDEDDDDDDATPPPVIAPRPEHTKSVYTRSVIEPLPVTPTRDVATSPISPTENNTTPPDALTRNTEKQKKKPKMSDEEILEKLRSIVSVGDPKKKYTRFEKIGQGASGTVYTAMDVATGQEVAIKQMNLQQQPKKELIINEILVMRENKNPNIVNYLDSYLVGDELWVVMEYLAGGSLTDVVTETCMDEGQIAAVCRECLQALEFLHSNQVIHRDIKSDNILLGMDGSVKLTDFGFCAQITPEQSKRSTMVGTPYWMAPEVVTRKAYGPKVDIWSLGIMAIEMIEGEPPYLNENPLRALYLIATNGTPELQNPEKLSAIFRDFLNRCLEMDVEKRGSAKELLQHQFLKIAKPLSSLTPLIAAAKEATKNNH

[33] = target: Serine/threonine-protein kinase PLK2 (Homo sapiens) (UniProt Q9NYY3); settings: Compound concentration 1000.0 nM
[34] = target: 5-hydroxytryptamine receptor 1B (Homo sapiens) (UniProt P28222); settings: Compound concentration 10.0 uM
[35] = target: MAP kinase-activated protein kinase 5 (Homo sapiens) (UniProt Q8IW41); settings: Compound concentration 1000.0 nM
Chain of MAP kinase-activated protein kinase 5 (Homo sapiens) (Q8IW41 whole entry): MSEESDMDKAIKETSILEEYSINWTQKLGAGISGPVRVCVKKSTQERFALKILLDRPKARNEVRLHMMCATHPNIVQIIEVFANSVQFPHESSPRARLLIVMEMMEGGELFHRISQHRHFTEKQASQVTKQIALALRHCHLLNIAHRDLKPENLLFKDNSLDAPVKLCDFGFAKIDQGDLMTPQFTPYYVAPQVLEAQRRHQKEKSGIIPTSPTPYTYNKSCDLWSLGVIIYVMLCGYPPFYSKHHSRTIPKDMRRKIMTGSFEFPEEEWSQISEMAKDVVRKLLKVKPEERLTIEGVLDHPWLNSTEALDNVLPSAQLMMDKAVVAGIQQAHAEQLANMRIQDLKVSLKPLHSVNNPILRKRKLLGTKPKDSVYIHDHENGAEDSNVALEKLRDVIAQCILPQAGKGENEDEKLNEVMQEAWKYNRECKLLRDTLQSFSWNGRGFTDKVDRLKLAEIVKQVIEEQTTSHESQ

[36] = tested on: Receptor-type tyrosine-protein kinase FLT3 (Homo sapiens), P36888 [D835H]; settings: Compound concentration 1000.0 nM
[37] = target: Dual specificity protein kinase CLK2 (Homo sapiens) (UniProt P49760); settings: Compound concentration 1000.0 nM
[38] = target: Mitogen-activated protein kinase kinase kinase 14 (Homo sapiens) (UniProt Q99558); settings: Compound concentration 1000.0 nM
Chain of Mitogen-activated protein kinase kinase kinase 14 (Homo sapiens) (Q99558 whole entry, looked up): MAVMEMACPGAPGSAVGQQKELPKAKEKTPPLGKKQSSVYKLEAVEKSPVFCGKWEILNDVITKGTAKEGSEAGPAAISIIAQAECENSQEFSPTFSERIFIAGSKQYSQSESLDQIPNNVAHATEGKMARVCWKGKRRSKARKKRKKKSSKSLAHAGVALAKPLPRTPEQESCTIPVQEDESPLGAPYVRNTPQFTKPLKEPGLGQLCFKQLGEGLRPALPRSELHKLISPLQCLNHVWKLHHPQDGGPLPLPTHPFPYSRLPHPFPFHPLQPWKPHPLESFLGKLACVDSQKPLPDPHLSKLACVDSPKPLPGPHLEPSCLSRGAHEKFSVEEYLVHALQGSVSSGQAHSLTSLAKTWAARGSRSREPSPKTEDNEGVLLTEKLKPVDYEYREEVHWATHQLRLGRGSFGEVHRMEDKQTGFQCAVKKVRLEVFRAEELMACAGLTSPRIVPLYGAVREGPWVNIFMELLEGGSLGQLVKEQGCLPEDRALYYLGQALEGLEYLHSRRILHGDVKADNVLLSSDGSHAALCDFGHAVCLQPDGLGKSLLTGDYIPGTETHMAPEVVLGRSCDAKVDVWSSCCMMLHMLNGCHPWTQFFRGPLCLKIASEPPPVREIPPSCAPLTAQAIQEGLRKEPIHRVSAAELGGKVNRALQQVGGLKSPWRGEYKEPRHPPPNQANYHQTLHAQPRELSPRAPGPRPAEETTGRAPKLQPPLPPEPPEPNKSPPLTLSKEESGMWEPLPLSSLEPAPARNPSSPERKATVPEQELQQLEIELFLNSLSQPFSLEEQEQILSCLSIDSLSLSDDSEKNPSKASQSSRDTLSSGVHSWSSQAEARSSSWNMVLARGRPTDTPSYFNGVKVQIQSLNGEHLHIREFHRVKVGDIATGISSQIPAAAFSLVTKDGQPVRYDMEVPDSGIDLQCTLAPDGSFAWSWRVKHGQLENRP

[39] = target: Mitogen-activated protein kinase 9 (Homo sapiens) (UniProt P45984); settings: Compound concentration 1000.0 nM
Chain of Mitogen-activated protein kinase 9 (Homo sapiens) (P45984 whole entry, looked up): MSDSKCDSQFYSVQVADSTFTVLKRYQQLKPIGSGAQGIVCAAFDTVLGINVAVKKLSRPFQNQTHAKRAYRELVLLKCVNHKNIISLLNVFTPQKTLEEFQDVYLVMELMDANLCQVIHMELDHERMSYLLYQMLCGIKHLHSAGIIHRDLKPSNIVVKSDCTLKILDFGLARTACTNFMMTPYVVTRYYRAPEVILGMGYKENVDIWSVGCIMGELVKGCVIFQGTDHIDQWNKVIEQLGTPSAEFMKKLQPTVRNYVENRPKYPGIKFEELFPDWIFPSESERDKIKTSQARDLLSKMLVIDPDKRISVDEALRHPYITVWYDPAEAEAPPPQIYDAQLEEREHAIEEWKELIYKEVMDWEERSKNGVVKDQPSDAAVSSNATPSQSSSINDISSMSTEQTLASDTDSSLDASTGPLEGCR

Q: Which residual activity [1] does the source give for `CC(=O)N1CCC(c2ccc(C(=O)NC3=NCCN3)cc2C(F)(F)F)CC1` [BI 0054] here?
A: 84%

Q: What about the residual activity [2] of the same compound?
A: 95%

Q: What about the residual activity [3] of the same compound?
A: 100%

Q: And the residual activity [4]?
A: 99%

Q: And the residual activity [5]?
A: 100%

Q: What about the residual activity [6] of the same compound?
A: 100%

Q: And the residual activity [7]?
A: 100%

Q: What about the residual activity [8] of the same compound?
A: 87%

Q: What about the residual activity [9] of the same compound?
A: 100%

Q: What about the inhibition [10] of the same compound?
A: -7.86%

Q: And the residual activity [11]?
A: 83%

Q: And the inhibition [12]?
A: 8.52%

Q: And the residual activity [13]?
A: 100%

Q: What about the residual activity [14] of the same compound?
A: 100%

Q: What about the residual activity [15] of the same compound?
A: 100%

Q: And the residual activity [16]?
A: 100%

Q: And the residual activity [17]?
A: 82%

Q: What about the residual activity [18] of the same compound?
A: 100%

Q: What about the inhibition [19] of the same compound?
A: 14.9%

Q: And the residual activity [20]?
A: 100%

Q: What about the inhibition [21] of the same compound?
A: 21.5%

Q: What about the residual activity [22] of the same compound?
A: 100%

Q: And the residual activity [23]?
A: 90%

Q: And the residual activity [24]?
A: 90%

Q: What about the residual activity [25] of the same compound?
A: 100%

Q: And the residual activity [26]?
A: 100%

Q: What about the residual activity [27] of the same compound?
A: 86%

Q: And the residual activity [28]?
A: 100%

Q: What about the residual activity [29] of the same compound?
A: 100%

Q: And the residual activity [30]?
A: 100%

Q: What about the residual activity [31] of the same compound?
A: 98%

Q: What about the residual activity [32] of the same compound?
A: 98%

Q: And the residual activity [33]?
A: 80%

Q: What about the inhibition [34] of the same compound?
A: 37.8%

Q: What about the residual activity [35] of the same compound?
A: 88%

Q: What about the residual activity [36] of the same compound?
A: 93%

Q: And the residual activity [37]?
A: 91%

Q: And the residual activity [38]?
A: 95%

Q: And the residual activity [39]?
A: 92%

Q: `CC(=O)N1CCC(c2ccc(C(=O)NC(=N)N)cc2C(F)(F)F)CC1` [BI 9627] was tested. Which residual activity [1] did it give?
A: 100%

Q: And the residual activity [2]?
A: 100%

Q: And the residual activity [3]?
A: 96%

Q: What about the residual activity [4] of the same compound?
A: 100%

Q: And the residual activity [5]?
A: 99%

Q: What about the residual activity [6] of the same compound?
A: 34%

Q: And the residual activity [7]?
A: 100%

Q: And the residual activity [8]?
A: 95%

Q: And the residual activity [9]?
A: 100%

Q: And the inhibition [10]?
A: 12.4%

Q: What about the residual activity [11] of the same compound?
A: 97%

Q: What about the inhibition [12] of the same compound?
A: 5.47%

Q: What about the residual activity [13] of the same compound?
A: 96%

Q: And the residual activity [14]?
A: 100%

Q: What about the residual activity [15] of the same compound?
A: 100%

Q: And the residual activity [16]?
A: 100%

Q: And the residual activity [17]?
A: 100%

Q: And the residual activity [18]?
A: 100%

Q: What about the inhibition [19] of the same compound?
A: -8.36%

Q: And the residual activity [20]?
A: 95%

Q: And the inhibition [21]?
A: 28.6%

Q: What about the residual activity [22] of the same compound?
A: 100%

Q: What about the residual activity [23] of the same compound?
A: 90%

Q: What about the residual activity [24] of the same compound?
A: 100%

Q: And the residual activity [25]?
A: 100%

Q: And the residual activity [26]?
A: 100%

Q: What about the residual activity [27] of the same compound?
A: 95%

Q: What about the residual activity [28] of the same compound?
A: 86%

Q: And the residual activity [29]?
A: 100%

Q: And the residual activity [30]?
A: 95%

Q: And the residual activity [31]?
A: 100%

Q: And the residual activity [32]?
A: 100%

Q: What about the residual activity [33] of the same compound?
A: 93%

Q: What about the inhibition [34] of the same compound?
A: 14.6%

Q: What about the residual activity [35] of the same compound?
A: 100%

Q: And the residual activity [36]?
A: 96%

Q: And the residual activity [37]?
A: 100%

Q: What about the residual activity [38] of the same compound?
A: 100%

Q: And the residual activity [39]?
A: 95%
